Test results as given in patent publication US8242145B2, “Cyclic diaryl ether compounds as antagonists of prostaglandin D2 receptors” (Panmira Pharmaceuticals, LLC, priority 2008, dated 2012).

Columns and labels:
human DP2 receptor = molecular target: T1, human DP2 receptor (Homo sapiens, UniProt Q9Y5Y4); experiment: DP2/CRTH2 radioligand binding assay using [3H]PGD2; details: hDP2 (CRTH2) binding assay
T1 construct: expressed in transfected cells
T1 sequence (Q9Y5Y4 1-395): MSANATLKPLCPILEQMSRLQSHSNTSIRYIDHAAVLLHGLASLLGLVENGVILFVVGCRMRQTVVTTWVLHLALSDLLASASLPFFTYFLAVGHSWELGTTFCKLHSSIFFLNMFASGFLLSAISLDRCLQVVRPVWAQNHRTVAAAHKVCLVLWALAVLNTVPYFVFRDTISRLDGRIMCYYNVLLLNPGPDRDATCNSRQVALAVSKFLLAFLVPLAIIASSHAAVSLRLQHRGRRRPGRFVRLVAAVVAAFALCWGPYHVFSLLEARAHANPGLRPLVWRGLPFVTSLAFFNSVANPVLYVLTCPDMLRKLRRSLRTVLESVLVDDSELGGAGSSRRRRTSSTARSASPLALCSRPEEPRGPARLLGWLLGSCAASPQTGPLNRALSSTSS
Protocol: The ability of a compound to bind to the human DP2 receptor is assessed via a radioligand binding assay using [^3H]PGD2. HEK293 cells stably expressing recombinant human DP2 are resuspended in 10 mM Hepes, 7.4 containing 1 mM DTT, lysed and centrifuged at 75,000×g to pellet the membranes. The membranes are resuspended in 10 mM Hepes, 7.4 containing 1 mM DTT and 10% glycerol to approximately 5 mg protein/ml. Membranes (2-10 μg protein/well) are incubated in 96-well plates with 1 nM [^3H]PGD2 and test compound in Assay Buffer (50 mM Hepes, 10 mM MnCl2, 1 mM EDTA, plus or minus 0.2% human serum albumin, pH 7.4) for 60 minutes at room temperature. The reactions are terminated by rapid filtration through Whatman GF/C glass fibre filter plates. The filter plates were pre-soaked in 0.33% polythylenimine for 30 minutes at room temperature then washed in Wash Buffer (50 mM Hepes, 0.5 M NaCl pH 7.4) prior to harvesting. After harvesting, the filter plates are washed 3 times with 1 ml cold Wash Buffer then dried. Scintillant is then added to the plates and the radioactivity retained on the filters is determined on a Packard TopCount (Perkin Elmer). Specific binding is determined as total radioactive binding minus non-specific binding in the presence of 10 μM PGD2. IC50s were determined using GraphPad prism analysis of drug titration curves.

[1] = molecular target: T2, recombinant human CRTH2 receptor (Homo sapiens, UniProt Q9Y5Y4); experiment: GTPγS binding assay; type: biochemical; details: +HSA; read-out: hDP2 GTPγS μM (+HSA)
T2 construct: expressed in transfected cells
T2 sequence (Q9Y5Y4 1-395): T1 sequence (Q9Y5Y4 1-395)
Protocol: The ability of a compound to inhibit binding of GTP to DP2 is assessed via a membrane GTPγS assay. CHO cells stably expressing the recombinant human CRTH2 receptor are resuspended in 10 mM Hepes, 7.4 containing 1 mM DTT, lysed and centrifuged at 75,000×g to pellet the membranes. The membranes are resuspended in 10 mM Hepes, 7.4 containing 1 mM DTT and 10% glycerol. Membranes (˜12.5 μg per well) are incubated in 96-well plates with 0.05 nM [^35S]-GTPγS, 80 nM PGD2, 5 μM GDP, and test compound in Assay Buffer (50 mM Hepes, pH 7.4, 100 mM NaCl, 5 mM MgCl2 and 0.2% human serum albumin) for 60 minutes at 30° C. The reactions are terminated by rapid filtration through Whatman GF/B glass fibre filter plates. The filter plates are washed 3 times with 1 ml cold Assay Buffer and dried. Scintillant is then added to the plates and the radioactivity retained on the filters is determined on a Packard TopCount (Perkin Elmer). Specific binding is determined as total radioactive binding minus non-specific binding in the absence of the ligand (80 nM PGD2). IC50s were determined using Graphpad prism analysis of drug titration curves.

human DP1 receptor = molecular target: T3, human DP1 receptor (Homo sapiens, UniProt Q13258); experiment: DP1 radioligand binding assay using [3H]BWA868C; details: hDP1 binding
T3 construct: tissue Biological Specialty Corporation; host or cells: human platelets, membranes
T3 sequence (Q13258 1-359): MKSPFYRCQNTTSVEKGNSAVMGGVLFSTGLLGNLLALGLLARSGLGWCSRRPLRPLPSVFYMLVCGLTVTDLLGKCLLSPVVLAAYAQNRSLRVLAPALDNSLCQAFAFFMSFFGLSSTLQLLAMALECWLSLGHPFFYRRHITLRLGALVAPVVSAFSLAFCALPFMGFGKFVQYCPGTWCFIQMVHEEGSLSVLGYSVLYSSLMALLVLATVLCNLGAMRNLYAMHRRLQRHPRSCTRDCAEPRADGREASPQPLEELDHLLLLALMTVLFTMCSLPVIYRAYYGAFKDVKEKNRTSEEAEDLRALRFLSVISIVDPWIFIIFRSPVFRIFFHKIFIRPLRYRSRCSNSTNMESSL
Protocol: The ability of a compound to bind to the human DP1 receptor was evaluated via a radioligand membrane binding assay using the DP1 selective synthetic ligand [^3H]BW A868C. Packed human platelets (Biological Specialty Corporation), were resuspended in 6 volumes of Hepes/HBSS buffer (10 mM Hepes, 1 mM DTT in Hanks Balanced Salt Solution (HBSS)), lysed and centrifuged at 75,000×g to pellet the membranes. Membranes were resuspended in Hepes/HBSS buffer to approximately 12 mg protein/ml. Membranes (20 μg protein/well) are incubated in 96-well plates with 2 nM [^3H]BWA868C and test compound in Assay Buffer (50 mM Hepes, 10 mM MnCl2, 1 mM EDTA, plus or minus 0.2% human serum albumin, pH 7.4) for 60 minutes at room temperature. The reactions are terminated by rapid filtration through Whatman GF/C glass fibre filter plates. The filter plates were pre-soaked in 0.33% polethylenimine for 30 minutes at room temperature then washed in Wash Buffer (50 mM Hepes, 0.5 M NaCl pH 7.4) prior to harvesting. After harvesting, the filter plates are washed 3 times with 1 ml cold Wash Buffer then dried. Scintillant is then added to the plates and the radioactivity retained on the filters is determined on a Packard TopCount (Perkin Elmer). Specific binding is determined as total radioactive binding minus non-specific binding in the presence of 10 μM BW A868C. IC50s were determined using GraphPad prism analysis of drug titration curves.

## O=C(O)Cc1cccc(Oc2ccc(Br)cc2CN2C(=O)O[C@H]3Cc4ccccc4[C@H]32)c1 [Compound 2-1, {3-[4-Bromo-2-((3aR,8aS)-2-oxo-8,8a-dihydro-3aH-indeno[1,2-d]oxazol-3-ylmethyl)-phenoxy]-phenyl}-acetic acid]
Human DP2 receptor
  IC50: < 300 nM
[1]
  IC50: < 0.3 µM
Human DP1 receptor
  IC50: > 1000 nM

## COc1ccc(CC(=O)O)cc1Oc1ccc(S(C)(=O)=O)cc1CN1C(=O)O[C@H](c2ccccc2)[C@@H]1C [Compound 1-34, {3-[4-Methanesulfonyl-2-((4S,5R)-4-methyl-2-oxo-5-phenyl-oxazolidin-3-ylmethyl)-phenoxy]-4-methoxy-phenyl}-acetic acid]
Human DP2 receptor
  IC50: 300 to 1000 nM
[1]
  IC50: > 1 µM
Human DP1 receptor
  IC50: > 1000 nM

## C[C@H]1[C@@H](c2ccccc2)OC(=O)N1Cc1cc(C(F)(F)F)ccc1Oc1cccc(CC(=O)O)c1 [Compound 1-77, {3-[2-((4S,5R)-4-Methyl-2-oxo-5-phenyl-oxazolidin-3-ylmethyl)-4-trifluoromethyl-phenoxy]-phenyl}-acetic acid]
Human DP2 receptor
  IC50: < 300 nM
[1]
  IC50: 0.3 to 1 µM
Human DP1 receptor
  IC50: < 300 nM

## C[C@@H]1[C@H](c2ccccc2)OC(=O)N1Cc1cc(Br)ccc1Oc1ccc(C(F)(F)F)c(CC(=O)O)c1 [Compound 1-54, {5-[4-Bromo-2-((4R,5S)-4-methyl-2-oxo-5-phenyl-oxazolidin-3-ylmethyl)-phenoxy]-2-trifluoromethyl-phenyl}-acetic acid]
Human DP2 receptor
  IC50: 300 to 1000 nM
[1]
  IC50: > 1 µM
Human DP1 receptor
  IC50: > 1000 nM

## CC(C)(C(=O)O)c1cccc(Oc2ccc(C(F)(F)F)cc2CN2CCOC2=O)c1 [Compound 1-11, 2-Methyl-2-{3-[2-(2-oxo-oxazolidin-3-ylmethyl)-4-trifluoromethyl-phenoxy]-phenyl}-propionic acid]
Human DP2 receptor
  IC50: > 1000 nM
Human DP1 receptor
  IC50: > 1000 nM

## C[C@H]1[C@@H](c2ccccc2)OC(=O)N1Cc1cc(-c2cnn(C)c2)ccc1Oc1cccc(CC(=O)O)c1 [Compound 1-21, {3-[2-((4S,5R)-4-Methyl-2-oxo-5-phenyl-oxazolidin-3-ylmethyl)-4-(1-methyl-1H-pyrazol-4-yl)-phenoxy]-phenyl}-acetic acid]
Human DP2 receptor
  IC50: < 300 nM
Human DP1 receptor
  IC50: < 300 nM

## C[C@H]1[C@@H](c2ccccc2)OC(=O)N1Cc1cc(-c2nccs2)ccc1Oc1cccc(CC(=O)O)c1 [Compound 1-74, {3-[2-((4S,5R)-4-Methyl-2-oxo-5-phenyl-oxazolidin-3-ylmethyl)-4-thiazol-2-yl-phenoxy]-phenyl}-acetic acid]
Human DP2 receptor
  IC50: < 300 nM
Human DP1 receptor
  IC50: < 300 nM

## Cc1ncc(-c2ccc(Oc3cccc(CC(=O)O)c3)c(CN3C(=O)O[C@H](c4ccccc4)[C@@H]3C)c2)[nH]1 [Compound 1-23, {3-[4-(2-Methyl-3H-imidazol-4-yl)-2-((4S,5R)-4-methyl-2-oxo-5-phenyl-oxazolidin-3-ylmethyl)-phenoxy]-phenyl}-acetic acid]
Human DP2 receptor
  IC50: < 300 nM
Human DP1 receptor
  IC50: > 1000 nM

## COc1ccc(CC(=O)O)cc1Oc1ccc(-c2ccccc2)cc1CN1CCOC1=O [Compound 1-95, {4-Methoxy-3-[3-(2-oxo-oxazolidin-3-ylmethyl)-biphenyl-4-yloxy]-phenyl}-acetic acid]
Human DP2 receptor
  IC50: < 300 nM
Human DP1 receptor
  IC50: > 1000 nM

## COc1ccc(CC(=O)O)cc1Oc1ccc(-c2cccc(S(C)(=O)=O)c2)cc1CN1CCOC1=O [Compound 1-93, {3-[3′-Methanesulfonyl-3-(2-oxo-oxazolidin-3-ylmethyl)-biphenyl-4-yloxy]-4-methoxy-phenyl}-acetic acid]
Human DP2 receptor
  IC50: < 300 nM
Human DP1 receptor
  IC50: > 1000 nM

## COc1ccc(CC(=O)O)cc1Oc1ccc(-c2cnn(C)c2)cc1CN1CCOC1=O [Compound 1-96, {4-Methoxy-3-[4-(1-methyl-1H-pyrazol-4-yl)-2-(2-oxo-oxazolidin-3-ylmethyl)-phenoxy]-phenyl}-acetic acid]
Human DP2 receptor
  IC50: < 300 nM
Human DP1 receptor
  IC50: > 1000 nM

## Cc1c[nH]c(-c2ccc(Oc3cccc(CC(=O)O)c3)c(CN3C(=O)O[C@H](c4ccccc4)[C@@H]3C)c2)n1 [Compound 1-72, {3-[4-(4-Methyl-1H-imidazol-2-yl)-2-((4S,5R)-4-methyl-2-oxo-5-phenyl-oxazolidin-3-ylmethyl)-phenoxy]-phenyl}-acetic acid]
Human DP2 receptor
  IC50: < 300 nM
Human DP1 receptor
  IC50: > 1000 nM

## C[C@H]1[C@@H](c2ccccc2)OC(=O)N1Cc1cc(-c2ccccn2)ccc1Oc1cccc(CC(=O)O)c1 [Compound 1-19, {3-[2-((4S,5R)-4-Methyl-2-oxo-5-phenyl-oxazolidin-3-ylmethyl)-4-pyridin-2-yl-phenoxy]-phenyl}-acetic acid]
Human DP2 receptor
  IC50: < 300 nM
Human DP1 receptor
  IC50: < 300 nM

## Cc1ccc(Oc2cccc(CC(=O)O)c2)c(CN2CCOC2=O)c1 [Compound 1-4, {3-[4-Methyl-2-(2-oxo-oxazolidin-3-ylmethyl)-phenoxy]-phenyl}-acetic acid]
Human DP2 receptor
  IC50: 300 to 1000 nM
Human DP1 receptor
  IC50: > 1000 nM

## COc1ccc(CC(=O)O)cc1Oc1ccc(NC(=O)c2cc(C(F)(F)F)cc(C(F)(F)F)c2)cc1CN1CCOC1=O [Compound 1-97, {3-[4-(3,5-Bis-trifluoromethyl-benzoylamino)-2-(2-oxo-oxazolidin-3-ylmethyl)-phenoxy]-4-methoxy-phenyl}-acetic acid]
Human DP2 receptor
  IC50: < 300 nM
Human DP1 receptor
  IC50: > 1000 nM

## C[C@H]1[C@@H](c2ccccc2)OC(=O)N1Cc1cc(-c2cnc(N)cn2)ccc1Oc1cccc(CC(=O)O)c1 [Compound 1-20, {3-[4-(5-Amino-pyrazin-2-yl)-2-((4S,5R)-4-methyl-2-oxo-5-phenyl-oxazolidin-3-ylmethyl)-phenoxy]-phenyl}-acetic acid]
Human DP2 receptor
  IC50: 300 to 1000 nM
Human DP1 receptor
  IC50: < 300 nM

## COc1ccc(CC(=O)O)cc1Oc1ccc(-c2ccccc2S(C)(=O)=O)cc1CN1CCOC1=O [Compound 1-94, {3-[2′-Methanesulfonyl-3-(2-oxo-oxazolidin-3-ylmethyl)-biphenyl-4-yloxy]-4-methoxy-phenyl}-acetic acid]
Human DP2 receptor
  IC50: < 300 nM
Human DP1 receptor
  IC50: > 1000 nM

## Cc1ncc(-c2ccc(Oc3cccc(CC(=O)O)c3)c(CN3C(=O)O[C@H](c4ccccc4)[C@@H]3C)c2)n1C [Compound 1-71, {3-[4-(2,3-Dimethyl-3H-imidazol-4-yl)-2-((4S,5R)-4-methyl-2-oxo-5-phenyl-oxazolidin-3-ylmethyl)-phenoxy]-phenyl}-acetic acid]
Human DP2 receptor
  IC50: 300 to 1000 nM
Human DP1 receptor
  IC50: 300 to 1000 nM
